# Data published in the METLIN SMRT retention time set (Domingo-Almenara et al. 2019).
# Assay: gradient 5% acetonitrile 3 min, to 50% in 2 min, to 85% in 15 min, held 3 min, 100 µL/min
# Details: column: Zorbax Extend-C18 2.1 x 50 mm; eluents: water / acetonitrile, 0.1% formic acid
# How it was run: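 Pure standards were run in mixtures of ~100 molecules by HPLC coupled to a quadrupole time-of-flight mass spectrometer. The column was a Zorbax Extend-C18 (2.1 × 50 mm, 1.8 μm) at 100 μL/min, with water and acetonitrile each containing 0.1% formic acid, in positive and negative ionization mode. Dead and dwell volumes were 40 μL and 900 μL. Retention time was taken from computationally picked adduct peaks, each manually inspected, with data collected over 3 months.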
row,SMILES,RP-LC retention time
1,CCN1CCN(C(=O)CN2c3ccc(C(C)C)cc3-c3ccccc3S2(=O)=O)CC1,712 s
2,COCCNC(=O)N1CC(c2nc(C3CC3)no2)C1,578 s
3,CCC(=O)Nc1c(C)noc1/C=C/c1ccc(S(=O)(=O)N2CCN(c3ccccn3)CC2)s1,677 s
4,Cc1ccc(S(=O)(=O)Nc2ccc(Cn3cncn3)cc2)cc1F,732 s
5,CC(C)N1C(=O)c2cccnc2Sc2cc(NC(=O)c3c(F)cccc3Cl)ccc21,973 s
6,Cc1nnc2c(NC(=O)c3ccncc3)cccn12,575 s
7,Cc1ccc(CNC(=O)c2ccc3c(=O)n(Cc4ccccc4)c(N4CCCC4)nc3c2)o1,683 s
8,CCN(CC)S(=O)(=O)c1c(C)nn(C(=O)c2ccccc2OC)c1C,951 s
9,CCN(Cc1cn(C)nc1C)C(=O)c1cc2c(=O)n(CC(C)C)c3ccccc3n2n1,864 s
10,NC(=O)C1CCN(C(=O)C2CCN(S(=O)(=O)Cc3ccc(Cl)cc3)CC2)CC1,678 s
11,CCC(C)NC(=O)N1CCN(c2cc(-c3cccc(OC)c3)ncn2)CC1 (stereo unspecified),634 s
12,COc1cc(C(=O)Nc2nc3ccc4nc(SC)sc4c3s2)cc(OC)c1OC,1080 s
13,O=C(NCCCN1CCOCC1)C1c2ccccc2C(=O)N(C2CCCC2)C1c1cccs1 (stereo unspecified),646 s
14,CN(C)CCCN1c2ccc3ccccc3c2Sc2cccc(Cl)c21,792 s
15,CCC(C)(C)C(=O)NC1CCN(c2cnn(CC3CC3)c(=O)c2)CC1,664 s
16,Cc1ccc(CNC(=O)c2ccc(Cn3nc(N4CCN(c5ccccc5)CC4)ccc3=O)o2)o1,706 s
17,COCCNC(=O)C1c2ccccc2CC(=O)N1C(C)C (stereo unspecified),648 s
18,Nc1nnc(SCc2nnc(-c3cccc(F)c3)o2)s1,646 s
19,N#Cc1ccc(S(=O)(=O)N2CCC(c3cc(N)on3)CC2)cc1,737 s

# Now from value to compound:
row,RP-LC retention time,SMILES
1,678 s,Cn1cc(C(=O)NC2CCCCC2)c2nn(-c3ccccc3)c(=O)c-2c1
2,608 s,Cc1noc(C)c1CC(=O)N1CC[C@@H]2CN(S(C)(=O)=O)[C@@H]2C1
3,764 s,O=C(Cc1cccs1)NCCS(=O)(=O)N1CCc2ccccc2C1
4,629 s,O=C(NCCc1ccccc1)N1CCN(C(=O)N2C[C@H]3C[C@H](C2)[C@H]2CCCC(=O)N2C3)CC1
5,1100 s,O=C(NC1(c2nc(-c3cccnc3)no2)CCCCC1)c1nccc2ccccc12
6,938 s,Cc1cc(-c2nnc(-c3ccc(F)cc3)o2)c(C)n1CC(=O)Nc1ccc2c(c1)OCO2
7,816 s,COc1cccc(-c2nc(Cn3c(C)nc4ccccc4c3=O)no2)c1OC
8,1180 s,CC1Oc2ccccc2N(Cc2nc(-c3ccc(Br)cc3)no2)C1=O (stereo unspecified)
9,754 s,CC(NC(=O)C1CCN(C(=O)c2ncn3c2COC(c2ccccc2)C3)CC1)c1ccccc1 (stereo unspecified)
10,905 s,CCn1c(=O)sc2cc(S(=O)(=O)N3CCC(C(=O)Nc4ccc(C)c(Cl)c4)CC3)ccc21
11,646 s,CC(=O)c1ccc(NC(=O)c2nc(N3CCCC3)c3c(C)cc(C)nc3n2)cc1
12,951 s,CCCCCNC(=O)C1CCN(c2cc(Sc3cc(C)ccc3C)ncn2)CC1
13,939 s,Cc1nc(-c2csc(S(=O)(=O)N3CCCC(C(=O)Nc4ccc(C)c(C)c4)C3)c2)no1 (stereo unspecified)
14,822 s,O=C(NCc1ccc(F)cc1Cl)C1CCN(C(=O)c2cc3ccsc3[nH]2)CC1
15,814 s,CC(C)c1ccc(-c2noc(N3CCC(C(=O)N4CCN(C5CCCCC5)CC4)CC3)n2)cc1
16,904 s,CCN1C(=O)CCc2cc(NS(=O)(=O)c3ccc(Cl)c(Cl)c3)ccc21
17,609 s,CCOc1ccc(NC(=O)c2cnc(N3CCN(CC)CC3)nc2N)cc1
